From patent US12576155B2, “Senolytic and antiinflammatory prodrugs and methods of use thereof” (priority 2019, dated 2026)

Test system: SARS-CoV-2-infected rhesus macaques
Assay: SARS-CoV-2-infected rhesus macaques, late-stage SSK1 treatment (i.v. once a day 22 to 28 dpi)
Format: in vivo
Method: To evaluate the therapeutic effect of SSK1 on the recovery period of SARS-CoV-2 infection, we used nine rhesus macaques of three different ages as reported before (Lu et al., 2020). All the animals were inoculated with total 4.75 ml of 10^6 pfu/ml SARS-CoV-2 intratracheally (4.00 ml), intranasally (0.50 ml) and on conjunctiva (0.25 ml). The nine rhesus macaques were divided into three groups according to the treatments, which included vehicle (DMSO), low dosage (0.5 mg/kg) and high dosage (2.0 mg/kg) of SSK1, respectively. Each group randomly selected one young, one adult and one old monkey. The final grouping is presented as following: the vehicle-treated group, RM1 (young), RM2 (adult) and RM3 (old); 0.5 mg/kg SSK1-treated group, RM4 (young), RM5 (adult) and RM6 (old); 2.0 mg/kg SSK1-treated group, RM7 (young), RM8 (adult) and RM9 (old). […] For each group, vehicle (DMSO), low dosage SSK1 (0.5 mg/kg) and high dosage SSK1 (2.0 mg/kg) were administrated intravenously (i.v.) once a day from 22 to 28 dpi. Animals were anesthetized and clinical exams were performed daily. We recorded the body weight, anal temperature on each examination day and collected blood samples for hematology analysis as well as swabs form nasal, throat and rectal for virus quantitative detection. The monkeys were euthanized on 34, 35 and 36 dpi. We collected the bronchoalveolar lavage fluid (BALF) with 10 ml PBS (Gibco, Cat #21-040-CVC) and recorded the pathological changes of all organs. Tissue samples collected from all organs and the BALF were further analyzed.
100 mg/ml SSK1 dissolved in DMSO (Life Science, Cat #1087C114) was mixed in 95% PBS (Gibco, Cat #21-040-CVC), 5% Tween-80 (BioFroxx, Cat #1716) and administrated intravenously (i.v.) at the dosage of 0.5 mg/kg or 2.0 mg/kg to monkeys at the indicated time point (the injection finished within 5-10 minutes). DMSO mixed in 95% PBS (Gibco, Cat #21-040-CVC), 5% Tween-80 (BioFroxx, Cat #1716) was intravenously (i.v.) injected as vehicle.
The blood samples were collected from saphenous vein of hind limb of anaesthetized monkeys using 5 ml blood collection tube containing sodium citrate anti-coagulant for further analysis. For Complete Blood Count (CBC), Auto Hematology Analyzer (BC-5000 Vet, Mindray, China) was used. The white blood cells-related numbers and percentages of Neutrophil (Neu), Lymphocyte (Lym), Monocyte (Mon), Eosinophil (Eos), Basophil (Bas), and platelet-related items, platelet count (PLT), mean platelet volume (MPV), platelet distribution width (PDW), plateletcrit (PCT) were analyzed. For serum biochemical analysis, the blood was clotted for 30 min at 4° C. and centrifugated at 3,000×rpm for 15 min to obtain serum. The serum was used to analysis the alanine transaminase (ALT), aspartate transaminase (AST), alkaline phosphatase (ALP), uric acid (UA) and creatinine (CRE-E) by Chemistry Analyzer (Mindray, BS-350E).
The serum and BALF samples were collected for analysis of cytokine and chemokine. Concentration of granulocyte colony-stimulating factor (G-CSF), granulocyte-macrophage colony-stimulating factor (GM-CSF), interferon (IFN)-γ, interleukin (IL)-1 receptor antagonist, IL-1β, IL-2, IL-4, IL-5, IL-6, IL-8, IL-10, IL-12/23 (p40), IL-13, IL-15, IL-17, IL-18, monocyte chemotactic protein (MCP)-1, macrophage inflammatory protein (MIP)-1α, MIP-1β, soluble CD40-ligand (sCD40L), transforming growth factor (TGF)-α, tumor necrosis factor (TNF)-α, vascular endothelial growth factor (VEGF) were determined using the Non-Human Primate Cytokine MILLIPLEX map 23-plex kit (Millipore, Cat #PRCYTOMAG-40K) according to the manufacturer's instructions.
Autopsies of the rhesus macaques were performed according to a standard protocol. After the dissection, the major organs were grossly examined. The lung tissues were harvested, fixed in 10% neutral-buffered formalin solution, embedded in paraffin and 2 μm tissue sections were prepared. […]

CC(=O)OCC1O[C@@H](Oc2ccc(COC(=O)Nc3ccn([C@@H]4O[C@H](CO)C(O)C4(F)F)c(=O)n3)cc2[N+](=O)[O-])C(OC(C)=O)C(OC(C)=O)[C@H]1OC(C)=O (some centres unmarked) [SSK1]
Body weight change (32 dpi vs 22 dpi %) (RM4 young 1-year, 0.5 mg/kg): +25.00%
Body weight change (32 dpi vs 22 dpi %) (RM5 adult 5-year, 0.5 mg/kg): −3.45%
Body weight change (32 dpi vs 22 dpi %) (RM6 old 17-year, 0.5 mg/kg): −1.25%
Body weight change (32 dpi vs 22 dpi %) (RM7 young 1-year, 2.0 mg/kg): +12.50%
Body weight change (32 dpi vs 22 dpi %) (RM8 adult 5-year, 2.0 mg/kg): +9.68%
Body weight change (32 dpi vs 22 dpi %) (RM9 old 18-year, 2.0 mg/kg): +1.82%
Body weight loss (SSK1 0.5 or 2.0 mg/kg, 22 to 32 dpi): effectively prevented body weight loss
Pulmonary histology assessment (histologic lesions) (SSK1-treated animals vs vehicle): reduction in histologic lesions
Diseased phenotype of lung sections (thickened alveolar septum, edema, hemorrhage; H&E staining) (SSK1-treated group vs vehicle): greatly improved
Inflammatory cytokines in blood including IL-6, IL-8, IL-10, IL-15, TGF-α and MCP1 (SSK1-treated old monkeys, especially at 2 mg/kg): reduced at 28 dpi compared with 21 dpi
Serum level of IL-18 (all high-dosage (2.0 mg/kg) SSK1-treated monkeys): increased level
New lung lesions at necropsy (all six SSK1-treated monkeys): only found one exhibiting new lung lesions
Macrophage infiltration in lung (CD68 immunohistochemistry) (especially at high dosages, in the elderly group): significantly reduced macrophage infiltration
Adverse effects (treated monkeys): did not observe any adverse effects
